Data set [1] concerns the target streptokinase-induced fibrinolysis (fibrinogen, plasminogen, thrombin system). Description: in vitro antifibrinolytic activity, 50% inhibition of streptokinase-induced fibrinolysis. As to conditions: for Actual amount of compound for 50% inhibition of 6 units of streptokinase: fibrinogen, plasminogen, thrombin plus 6 units of streptokinase. The data set is classed as biochemical. As for the experimental part:
Antifibrinolytic activity quantitative assay was conducted by a technique utilizing the procedures described by Christensen, L. E. in J. clin. Invest., volume 28 (1949), page 163, and Wasserman, A. E., et al. in J. Lab. clin. Med., volume 4 (1953), page 812. […] The system consists of fibrinogen, plasminogen, and thrombin, to which is added 6 units of streptokinase which produces a lytic effect. The 50% inhibition studied corresponds to a lytic activity of 3 units of streptokinase. […] The time necessary for the formed plasmin to dissolve a standard fibrin coagulum is determined.
The following table furnishes the data on the in vitro antifibrinolytic activity of the several compounds considered in this specification, expressed as 50% inhibition of 6 units of streptokinase: […]

For data set [2] the following is noted: animal organism, i.e. the subject being treated; cited from earlier work.
The next data set relates to fibrinolysis. As to conditions: cited from earlier work.

Each structure is given as a SMILES string.

Regarding `NCC1CCC(C(=O)O)CC1` (single isomer, unassigned; isomer 4) [Isomeric AMCHA, comprising 10% active isomer, 4-aminomethyl-cyclohexane carboxylic acid], the “Actual amount of compound for 50% inhibition of 6 units of streptokinase” value in data set [1] (in vitro) was 2 γ.

Take `NCC1CCC(C(=O)O)CC1` (single isomer, unassigned; isomer 4) [Inactive-AMCHA isomer, 4-aminomethyl-cyclohexane carboxylic acid]: the “antifibrinolytic activity” value in data set [1] (evaluation of the two separate AMCHA isomers) was “practically devoid of any antifibrinolytic activity”. Moreover, the “Actual amount of compound for 50% inhibition of 6 units of streptokinase” value in data set [1] (in vitro) is on record as 30 γ.

For the compound `NCC1CCC(C(=O)O)CC1` (single isomer, unassigned; isomer 4) [Active-AMCHA isomer, 4-aminomethyl-cyclohexane carboxylic acid], the “Actual amount of compound for 50% inhibition of 6 units of streptokinase” value in data set [1] (in vitro) is on record as 0.2 γ.

Compound `NCCCCCC(=O)O` [EACA, epsilon-aminocaproicacid] came in with a Relative activity in data set [1] (in vitro, 50% inhibition of 6 units of streptokinase, relative to EACA = 1) of 1. Further, the “Actual amount of compound for 50% inhibition of 6 units of streptokinase” value in data set [1] (in vitro) is reported as 4 γ. In addition, the excretion entry in data set [2] was “so rapidly excreted”. For the same compound, the “antifibrinolytic activity in clinical use” value in the data set with fibrinolysis is given as “acceptable degree of antifibrinolytic activity”.

Source of the values: USRE30149E, “Preparation of antifibrinolytically active isomer of 4-aminomethylcyclohexane carboxylic acid” (AB Kabi, priority 1963, dated 1979).
